Assay results from ChEMBL document CHEMBL5042512 (Eur J Med Chem, 2022).
Calls of active or inactive are those of the source. The calls are words filed in the database; no cut-off is given here.

Columns and labels:
[1] = test system: KYSE-450; test: Antiproliferative activity against human KYSE-450 cells assessed as cell viability measured up to 48 hrs by CCK8 assay; type: functional, cell-based; conditions: time hrs <=48, TDE = time-dependent effect
[2] = test system: KYSE-30; test: Induction of mitochondrial membrane potential loss in human KYSE-30 cells assessed as downregulation of Bcl-2 protein at 80 to 100 nM measured after 48 hrs by western blot analysis; type: functional, cell-based; conditions: dose 80-100 nM
[3] = test system: KYSE-30; test: Down regulation of CDC25C protein expression in human KYSE-30 cells at 80 to 100 nM for 48 hrs by western blot analysis; type: functional, cell-based; conditions: dose 80-100 nM
[4] = test system: KYSE-30; test: Induction of apoptosis in human KYSE-30 cells assessed as apoptotic cells at 80 nM measured after 48 hrs by annexin-V-FITC and PI staining based flow cytometry analysis (reference value: 8.1667 %); type: functional
[5] = test system: KYSE-30; test: Induction of mitochondrial membrane potential loss in human KYSE-30 cells assessed as decrease in XIAP level at 80 to 100 nM measured after 48 hrs by western blot analysis; type: functional, cell-based; conditions: dose 80-100 nM
[6] = test system: KYSE-30; test: Antiproliferative activity against human KYSE-30 cells assessed as inhibition of colony formation at 40 to 60 nM for 7 days by crystal violet staining based analysis; type: functional, cell-based; conditions: dose 40-60 nM, time 7.0 day
[7] = test system: KYSE-450; test: Induction of mitochondrial membrane potential loss in human KYSE-450 cells assessed as downregulation of Bcl-2 protein at 80 to 100 nM measured after 48 hrs by western blot analysis; type: functional, cell-based; conditions: dose 80-100 nM
[8] = test system: KYSE-450; test: Up regulation of p-Histone H3 protein expression in human KYSE-450 cells at 80 to 100 nM for 48 hrs by western blot analysis; type: functional, cell-based; conditions: dose 80-100 nM
[9] = test system: KYSE-30; test: Antiproliferative activity against human KYSE-30 cells assessed as cell viability measured up to 48 hrs by CCK8 assay; type: functional, cell-based; conditions: time hrs <=48, TDE = time-dependent effect
[10] = test system: KYSE-450; test: Down regulation of CDK1 protein expression in human KYSE-450 cells at 80 to 100 nM for 48 hrs by western blot analysis; type: functional, cell-based; conditions: dose 80-100 nM
[11] = test system: KYSE-450; test: Antiproliferative activity against human KYSE-450 cells assessed as cell growth inhibition measured after 48 hrs by CCK8 assay; type: functional, cell-based; conditions: KYSE-450, 48 h
[12] = test system: KYSE-30; test: Induction of mitochondrial membrane potential loss in human KYSE-30 cells assessed as Bak expression at 80 to 100 nM measured after 48 hrs by western blot analysis; type: functional, cell-based; conditions: dose 80-100 nM
[13] = test system: KYSE-450; test: Induction of apoptosis in human KYSE-450 cells assessed as PARP cleavage at 80 to 100 nM measured after 48 hrs by western blot analysis; type: functional, cell-based; conditions: dose 80-100 nM
[14] = test system: KYSE-30; test: Down regulation of p-wee1 protein expression in human KYSE-30 cells at 80 to 100 nM for 48 hrs by western blot analysis; type: functional, cell-based; conditions: dose 80-100 nM
[15] = test system: KYSE-450; test: Induction of mitochondrial membrane potential loss in human KYSE-450 cells assessed as Mcl-1 expression at 80 to 100 nM measured after 48 hrs by western blot analysis; type: functional, cell-based; conditions: dose 80-100 nM
[16] = test system: KYSE-450; test: Antiproliferative activity against human KYSE-450 cells assessed as inhibition of colony formation at 40 to 60 nM for 7 days by crystal violet staining based analysis; type: functional, cell-based; conditions: dose 40-60 nM, time 7.0 day
[17] = test system: KYSE-30; test: Induction of mitochondrial membrane potential loss in human KYSE-30 cells assessed as Bcl-xL expression at 80 to 100 nM measured after 48 hrs by western blot analysis; type: functional, cell-based; conditions: dose 80-100 nM
[18] = test system: KYSE-450; test: Down regulation of p-wee1 protein expression in human KYSE-450 cells at 80 to 100 nM for 48 hrs by western blot analysis; type: functional, cell-based; conditions: dose 80-100 nM
[19] = test system: KYSE-450; test: Down regulation of CDC25C protein expression in human KYSE-450 cells at 80 to 100 nM for 48 hrs by western blot analysis; type: functional, cell-based; conditions: dose 80-100 nM
[20] = biological target: T1, Tubulin (Homo sapiens) (UniProt P68371+Q9H4B7+P0DPH7+P68366+Q13509+Q71U36+P04350+Q3ZCM7+P07437+P68363+Q9BQE3+Q6PEY2+Q13885+Q9BVA1+Q9BUF5); test: Inhibition of tubulin polymerization in human KYSE-450 cells assessed as weakening of beta tubulin at 100 to 300 nM for 2 hrs by EBI alkylate competition assay; type: cell-based; conditions: dose 100-300 nM
[21] = test system: KYSE-30; test: Induction of mitochondrial membrane potential loss in human KYSE-30 cells assessed as upregulation of NOXA protein at 80 to 100 nM measured after 48 hrs by western blot analysis; type: functional, cell-based; conditions: dose 80-100 nM
[22] = test system: HCT-116; test: Antiproliferative activity against human HCT-116 cells assessed as cell growth inhibition measured after 48 hrs by CCK8 assay; type: functional, cell-based; conditions: HCT-116, 48 h
[23] = test system: KYSE-30; test: Induction of apoptosis in human KYSE-30 cells assessed as caspase-3 cleavage at 80 to 100 nM measured after 48 hrs by western blot analysis; type: functional, cell-based; conditions: dose 80-100 nM
[24] = test system: KYSE-450; test: Induction of mitochondrial membrane potential loss in human KYSE-450 cells assessed as Bak expression at 80 to 100 nM measured after 48 hrs by western blot analysis; type: functional, cell-based; conditions: dose 80-100 nM
[25] = test system: KYSE-30; test: Up regulation of p-Histone H3 protein expression in human KYSE-30 cells at 80 to 100 nM for 48 hrs by western blot analysis; type: functional, cell-based; conditions: dose 80-100 nM
[26] = test system: KYSE-450; test: Induction of cell cycle arrest in human KYSE-450 cells assessed as accumulation at G2/M phase at 100 nM measured after 48 hrs by flow cytometry analysis (reference value: 7.04333 %); type: functional
[27] = test system: KYSE-30; test: Induction of mitochondrial membrane potential loss in human KYSE-30 cells assessed as mitochondrial depolarization at 80 to 100 nM measured after 48 hrs by JCI staining based flow cytometry; type: functional, cell-based; conditions: dose 80-100 nM
[28] = test system: KYSE-30; test: Induction of mitochondrial membrane potential loss in human KYSE-30 cells assessed as Mcl-1 expression at 80 to 100 nM measured after 48 hrs by western blot analysis; type: functional, cell-based; conditions: dose 80-100 nM
[29] = test system: KYSE-450; test: Antiproliferative activity against human KYSE-450 cells assessed as cell viability measured after 48 hrs by CCK8 assay; type: functional, cell-based; conditions: KYSE-450, 48 h
[30] = test system: KYSE-450; test: Induction of apoptosis in human KYSE-450 cells assessed as caspase-3 cleavage at 80 to 100 nM measured after 48 hrs by western blot analysis; type: functional, cell-based; conditions: dose 80-100 nM
[31] = test system: KYSE-30; test: Induction of apoptosis in human KYSE-30 cells assessed as apoptotic cells at 100 nM measured after 48 hrs by annexin-V-FITC and PI staining based flow cytometry analysis (reference value: 8.1667 %); type: functional
[32] = test system: KYSE-30; test: Antiproliferative activity against human KYSE-30 cells assessed as cell viability measured after 48 hrs by CCK8 assay; type: functional, cell-based; conditions: KYSE-30, 48 h
[33] = test system: MGC-803; test: Antiproliferative activity against human MGC-803 cells assessed as cell growth inhibition measured after 48 hrs by CCK8 assay; type: functional, cell-based; conditions: MGC-803, 48 h
[34] = biological target: T1, Tubulin (Homo sapiens); test: Inhibition of tubulin polymerization in human KYSE-30 cells assessed as microtubule assembly at 0.1 uM measured after 48 hrs by immunofluorescence assay; type: cell-based
[35] = test system: KYSE-30; test: Induction of apoptosis in human KYSE-30 cells assessed as PARP cleavage at 80 to 100 nM measured after 48 hrs by western blot analysis; type: functional, cell-based; conditions: dose 80-100 nM
[36] = test system: KYSE-450; test: Induction of apoptosis in human KYSE-450 cells assessed as apoptotic cells at 100 nM measured after 48 hrs by annexin-V-FITC and PI staining based flow cytometry analysis (reference value: 8.1667 %); type: functional

## COc1ccc(CN(C(=O)CSC(=S)N2CCN(C(=O)OC(C)(C)C)CC2)c2cc(OC)c(OC)c(OC)c2)cc1O
[1]
  inhibition: Tde
[2]
  Activity: Dose-Dependent Effect
[3]
  Activity: Dose-Dependent Effect
[4]
  Activity: 23.8%
[5]
  Activity: Dose-Dependent Effect
[6]
  inhibition: Active
[7]
  Activity: Dose-Dependent Effect
[8]
  Activity: Dose-Dependent Effect
[9]
  inhibition: Tde
[10]
  Activity: Dose-Dependent Effect
[11]
  IC50: 76 nM
[12]
  Activity: inactive
[13]
  Activity: Active
[14]
  Activity: Dose-Dependent Effect
[15]
  Activity: inactive
[16]
  inhibition: Active
[17]
  Activity: inactive
[18]
  Activity: Dose-Dependent Effect
[19]
  Activity: Dose-Dependent Effect
[20]
  inhibition: Active
[21]
  Activity: Dose-Dependent Effect
[22]
  IC50: 128 nM
[23]
  Activity: Active
[24]
  Activity: inactive
[25]
  Activity: Dose-Dependent Effect
[26]
  Activity: 80.8933%
[27]
  Activity: Active
[28]
  Activity: inactive
[29]
  IC50: 76 nM
[30]
  Activity: Active
[31]
  Activity: 38.633%
[32]
  IC50: 69 nM
[33]
  IC50: 82 nM
[34]
  inhibition: Active
[35]
  Activity: Active
[36]
  Activity: 57.3667%
